Earlier results in patent publication US20030027808A1, “Farnesyl protein transferase inhibitor combinations with platinum compounds” (priority 2000, published 2003).

Test system: colon cancer (LoVo)
Details: in combination with cisplatin; in vitro LoVo colon cancer model; reported at 90th AACR Annual Meeting, Apr. 10-14, 1999

SMILES: Cn1cncc1C(N)(c1ccc(Cl)cc1)c1ccc2c(c1)c(-c1cccc(Cl)c1)cc(=O)n2C (single isomer, unassigned; (+)) [(+)-6-[amino(4-chlorophenyl)(1-methyl-1H-imidazol-5-yl)methyl]-4-(3-chlorophenyl)-1-methyl-2(1H)-quinolinone]
- anti-tumor effect of the combination: additive anti-tumor effect
